# Activity calls are given as the source filed them. The rule behind the calls is not given here.
# Molecular target: not listed separately
# Test: Displacement of Fluormone-AL green from rat GST/His-tagged AR LBD mutant after 4 hrs by Fluorescence polarization assay
# Conditions: not given
row,Structure (SMILES),IC50 [nM]
1,N#Cc1ccc(N2C(=O)C3Cc4ccc(Cl)cc4N3C2=S)cc1C(F)(F)F (configuration not stated),2330
2,N#Cc1ccc(N2C(=O)C3Cc4ccc(Br)cc4N3C2=S)cc1C(F)(F)F (configuration not stated),2980
3,N#Cc1ccc(N2C(=O)C3Cc4ccc([N+](=O)[O-])cc4N3C2=S)cc1C(F)(F)F (configuration not stated),4490
4,CNC(=O)c1ccc(N2C(=S)N(c3ccc(C#N)c(C(F)(F)F)c3)C(=O)C2(C)C)cc1F [ENZALUTAMIDE],1350

# Tested on: DU-145
# Test: Antiproliferative activity against AR negative human DU145 cells after 3 days by MTT assay
# Format: functional, cell-based
# Conditions: DU-145, 72 h
row,Structure (SMILES),IC50 [µM]
1,N#Cc1ccc(N2C(=O)c3cc4ccccc4n3C2=S)cc1C(F)(F)F,146
2,N#Cc1ccc(N2C(=O)C3Cc4ccccc4N3C2=S)cc1C(F)(F)F (configuration not stated),143
3,N#Cc1ccc(N2C(=O)C3CCCN3C2=S)cc1C(F)(F)F (configuration not stated),> 200
4,N#Cc1ccc(N2C(=O)C3Cc4ccc(Cl)cc4N3C2=S)cc1C(F)(F)F (configuration not stated),> 200
5,N#Cc1ccc(N2C(=O)C3Cc4cc(N)ccc4N3C2=S)cc1C(F)(F)F (configuration not stated),> 200
6,CCCCNC(=O)c1ccc2c(c1)N1C(=S)N(c3ccc(C#N)c(C(F)(F)F)c3)C(=O)C1C2 (configuration not stated),58
7,N#Cc1ccc(N2C(=O)C3Cc4ccc(C(=O)NCCO)cc4N3C2=S)cc1C(F)(F)F (configuration not stated),175
8,N#Cc1ccc(N2C(=O)C3Cc4cc(C(=O)NC5CCCCC5)c(F)cc4N3C2=S)cc1C(F)(F)F (configuration not stated),126
9,N#Cc1ccc(N2C(=O)C3Cc4ccc(Br)cc4N3C2=S)cc1C(F)(F)F (configuration not stated),> 200
10,CCNC(=O)c1ccc2c(c1)N1C(=S)N(c3ccc(C#N)c(C(F)(F)F)c3)C(=O)C1C2 (configuration not stated),105
11,CC(C)CNC(=O)c1cc2c(cc1F)N1C(=S)N(c3ccc(C#N)c(C(F)(F)F)c3)C(=O)C1C2 (configuration not stated),> 200
12,CCCNC(=O)c1cc2c(cc1F)N1C(=S)N(c3ccc(C#N)c(C(F)(F)F)c3)C(=O)C1C2 (configuration not stated),> 200
13,N#Cc1ccc(N2C(=O)C3Cc4cc(Br)ccc4N3C2=S)cc1C(F)(F)F (configuration not stated),> 200
14,CCCCNC(=O)c1cc2c(cc1F)N1C(=S)N(c3ccc(C#N)c(C(F)(F)F)c3)C(=O)C1C2 (configuration not stated),175
15,N#Cc1ccc(N2C(=O)C3Cc4ccc(I)cc4N3C2=S)cc1C(F)(F)F (configuration not stated),190
16,N#Cc1ccc(N2C(=O)C3Cc4ccc([N+](=O)[O-])cc4N3C2=S)cc1C(F)(F)F (configuration not stated),> 200
17,N#Cc1ccc(N2C(=O)C3CC(O)CN3C2=S)cc1C(F)(F)F (configuration not stated),> 200
18,N#Cc1ccc(N2C(=O)C3Cc4ccc(C(=O)NC5CCCCC5)cc4N3C2=S)cc1C(F)(F)F (configuration not stated),101
19,CCNC(=O)c1cc2c(cc1F)N1C(=S)N(c3ccc(C#N)c(C(F)(F)F)c3)C(=O)C1C2 (configuration not stated),115
20,N#Cc1ccc(N2C(=O)C3Cc4ccc(N)cc4N3C2=S)cc1C(F)(F)F (configuration not stated),67
21,CNC(=O)c1cc2c(cc1F)N1C(=S)N(c3ccc(C#N)c(C(F)(F)F)c3)C(=O)C1C2 (configuration not stated),> 200
22,CCCNC(=O)c1ccc2c(c1)N1C(=S)N(c3ccc(C#N)c(C(F)(F)F)c3)C(=O)C1C2 (configuration not stated),114
23,N#Cc1ccc(N2C(=O)C3Cc4cc(Cl)ccc4N3C2=S)cc1C(F)(F)F (configuration not stated),160
24,CC(O)CNC(=O)c1ccc2c(c1)N1C(=S)N(c3ccc(C#N)c(C(F)(F)F)c3)C(=O)C1C2 (configuration not stated),> 200
25,CNC(=O)c1ccc2c(c1)N1C(=S)N(c3ccc(C#N)c(C(F)(F)F)c3)C(=O)C1C2 (configuration not stated),> 200
26,N#Cc1ccc(N2C(=O)C3CC4CCCCC4N3C2=S)cc1C(F)(F)F (configuration not stated),128
27,N#Cc1ccc(N2C(=O)C3Cc4cc([N+](=O)[O-])ccc4N3C2=S)cc1C(F)(F)F (configuration not stated),78.4

# Tested on: not listed separately
# Test: Antiproliferative activity against human LNCaP-hr cells expressing AR T877A mutant after 3 days by MTT assay
# Format: functional, cell-based
# Conditions: 72 h
row,Structure (SMILES),IC50 [µM]
1,N#Cc1ccc(N2C(=O)c3cc4ccccc4n3C2=S)cc1C(F)(F)F,33.4
2,N#Cc1ccc(N2C(=O)C3Cc4ccccc4N3C2=S)cc1C(F)(F)F (configuration not stated),15.3
3,N#Cc1ccc(N2C(=O)C3CCCN3C2=S)cc1C(F)(F)F (configuration not stated),87.7
4,N#Cc1ccc(N2C(=O)C3Cc4ccc(Cl)cc4N3C2=S)cc1C(F)(F)F (configuration not stated),27.9
5,N#Cc1ccc(N2C(=O)C3Cc4cc(N)ccc4N3C2=S)cc1C(F)(F)F (configuration not stated),99.1
6,CCCCNC(=O)c1ccc2c(c1)N1C(=S)N(c3ccc(C#N)c(C(F)(F)F)c3)C(=O)C1C2 (configuration not stated),77.2
7,N#Cc1ccc(N2C(=O)C3Cc4ccc(C(=O)NCCO)cc4N3C2=S)cc1C(F)(F)F (configuration not stated),25.8
8,N#Cc1ccc(N2C(=O)C3Cc4cc(C(=O)NC5CCCCC5)c(F)cc4N3C2=S)cc1C(F)(F)F (configuration not stated),44.9
9,N#Cc1ccc(N2C(=O)C3Cc4ccc(Br)cc4N3C2=S)cc1C(F)(F)F (configuration not stated),30.4
10,CCNC(=O)c1ccc2c(c1)N1C(=S)N(c3ccc(C#N)c(C(F)(F)F)c3)C(=O)C1C2 (configuration not stated),35.3
11,CC(C)CNC(=O)c1cc2c(cc1F)N1C(=S)N(c3ccc(C#N)c(C(F)(F)F)c3)C(=O)C1C2 (configuration not stated),70.7
12,CCCNC(=O)c1cc2c(cc1F)N1C(=S)N(c3ccc(C#N)c(C(F)(F)F)c3)C(=O)C1C2 (configuration not stated),11.2
13,N#Cc1ccc(N2C(=O)C3Cc4cc(Br)ccc4N3C2=S)cc1C(F)(F)F (configuration not stated),83.7
14,CCCCNC(=O)c1cc2c(cc1F)N1C(=S)N(c3ccc(C#N)c(C(F)(F)F)c3)C(=O)C1C2 (configuration not stated),67.3
15,N#Cc1ccc(N2C(=O)C3Cc4ccc(I)cc4N3C2=S)cc1C(F)(F)F (configuration not stated),71.9
16,N#Cc1ccc(N2C(=O)C3Cc4ccc([N+](=O)[O-])cc4N3C2=S)cc1C(F)(F)F (configuration not stated),26.9
17,N#Cc1ccc(N2C(=O)C3CC(O)CN3C2=S)cc1C(F)(F)F (configuration not stated),52.6
18,N#Cc1ccc(N2C(=O)C3Cc4ccc(C(=O)NC5CCCCC5)cc4N3C2=S)cc1C(F)(F)F (configuration not stated),29.3
19,CCNC(=O)c1cc2c(cc1F)N1C(=S)N(c3ccc(C#N)c(C(F)(F)F)c3)C(=O)C1C2 (configuration not stated),54.1
20,N#Cc1ccc(N2C(=O)C3Cc4ccc(N)cc4N3C2=S)cc1C(F)(F)F (configuration not stated),32.6
21,CNC(=O)c1cc2c(cc1F)N1C(=S)N(c3ccc(C#N)c(C(F)(F)F)c3)C(=O)C1C2 (configuration not stated),58.2
22,CCCNC(=O)c1ccc2c(c1)N1C(=S)N(c3ccc(C#N)c(C(F)(F)F)c3)C(=O)C1C2 (configuration not stated),90.8
23,N#Cc1ccc(N2C(=O)C3Cc4cc(Cl)ccc4N3C2=S)cc1C(F)(F)F (configuration not stated),46
24,CNC(=O)c1ccc(N2C(=S)N(c3ccc(C#N)c(C(F)(F)F)c3)C(=O)C2(C)C)cc1F [ENZALUTAMIDE],12.5
25,CC(O)CNC(=O)c1ccc2c(c1)N1C(=S)N(c3ccc(C#N)c(C(F)(F)F)c3)C(=O)C1C2 (configuration not stated),48.4
26,CNC(=O)c1ccc2c(c1)N1C(=S)N(c3ccc(C#N)c(C(F)(F)F)c3)C(=O)C1C2 (configuration not stated),144
27,N#Cc1ccc(N2C(=O)C3CC4CCCCC4N3C2=S)cc1C(F)(F)F (configuration not stated),36.2
28,N#Cc1ccc(N2C(=O)C3Cc4cc([N+](=O)[O-])ccc4N3C2=S)cc1C(F)(F)F (configuration not stated),64.7

# Molecular target: T1, Androgen receptor (Homo sapiens) (UniProt P10275)
# T1 sequence (whole entry): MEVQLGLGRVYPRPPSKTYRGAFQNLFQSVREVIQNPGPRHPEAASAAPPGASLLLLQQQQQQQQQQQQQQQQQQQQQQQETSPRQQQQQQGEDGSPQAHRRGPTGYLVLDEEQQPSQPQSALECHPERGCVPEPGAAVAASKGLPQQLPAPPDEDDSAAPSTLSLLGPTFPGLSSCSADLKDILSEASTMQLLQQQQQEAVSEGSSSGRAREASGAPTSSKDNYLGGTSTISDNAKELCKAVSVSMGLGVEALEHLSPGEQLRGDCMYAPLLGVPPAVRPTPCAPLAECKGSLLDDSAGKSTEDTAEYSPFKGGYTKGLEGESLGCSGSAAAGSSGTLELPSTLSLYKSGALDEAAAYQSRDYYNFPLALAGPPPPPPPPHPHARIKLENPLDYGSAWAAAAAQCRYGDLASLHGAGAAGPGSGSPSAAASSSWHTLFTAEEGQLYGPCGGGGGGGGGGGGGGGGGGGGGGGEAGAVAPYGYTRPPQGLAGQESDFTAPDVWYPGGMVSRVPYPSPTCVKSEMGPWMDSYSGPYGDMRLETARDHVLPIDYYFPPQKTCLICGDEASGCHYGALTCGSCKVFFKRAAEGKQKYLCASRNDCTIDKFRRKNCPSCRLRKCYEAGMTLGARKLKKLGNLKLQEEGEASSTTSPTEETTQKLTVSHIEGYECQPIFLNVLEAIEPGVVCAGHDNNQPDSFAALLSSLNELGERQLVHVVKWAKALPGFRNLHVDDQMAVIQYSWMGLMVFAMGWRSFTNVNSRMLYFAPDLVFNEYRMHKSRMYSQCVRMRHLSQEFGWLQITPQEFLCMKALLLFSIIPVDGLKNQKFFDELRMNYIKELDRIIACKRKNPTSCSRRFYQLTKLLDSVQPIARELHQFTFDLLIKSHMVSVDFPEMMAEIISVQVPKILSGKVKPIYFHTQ
# Conditions: at 10 µM
# Description: Antagonist activity at androgen receptor (unknown origin) expressed in COS-7 cells assessed as inhibition of R1881-induced MMTV promoter activity at 10 uM by luciferase reporter gene assay relative to control
row,Structure (SMILES),inhibition
1,N#Cc1ccc(N2C(=O)c3cc4ccccc4n3C2=S)cc1C(F)(F)F,21.1%
2,N#Cc1ccc(N2C(=O)C3CCCN3C2=S)cc1C(F)(F)F (configuration not stated),32%
3,N#Cc1ccc(N2C(=O)C3Cc4ccc(Cl)cc4N3C2=S)cc1C(F)(F)F (configuration not stated),71.9%
4,N#Cc1ccc(N2C(=O)C3Cc4cc(N)ccc4N3C2=S)cc1C(F)(F)F (configuration not stated),23.4%
5,CCCCNC(=O)c1ccc2c(c1)N1C(=S)N(c3ccc(C#N)c(C(F)(F)F)c3)C(=O)C1C2 (configuration not stated),inactive
6,N#Cc1ccc(N2C(=O)C3Cc4ccc(C(=O)NCCO)cc4N3C2=S)cc1C(F)(F)F (configuration not stated),37%
7,N#Cc1ccc(N2C(=O)C3Cc4cc(C(=O)NC5CCCCC5)c(F)cc4N3C2=S)cc1C(F)(F)F (configuration not stated),55.1%
8,N#Cc1ccc(N2C(=O)C3Cc4ccc(Br)cc4N3C2=S)cc1C(F)(F)F (configuration not stated),68.3%
9,CCNC(=O)c1ccc2c(c1)N1C(=S)N(c3ccc(C#N)c(C(F)(F)F)c3)C(=O)C1C2 (configuration not stated),2.1%
10,CC(C)CNC(=O)c1cc2c(cc1F)N1C(=S)N(c3ccc(C#N)c(C(F)(F)F)c3)C(=O)C1C2 (configuration not stated),inactive
11,CCCNC(=O)c1cc2c(cc1F)N1C(=S)N(c3ccc(C#N)c(C(F)(F)F)c3)C(=O)C1C2 (configuration not stated),inactive
12,C[C@]1(O)CC[C@H]2[C@@H]3CCC4=CC(=O)CCC4=C3C=C[C@@]21C,inactive
13,N#Cc1ccc(N2C(=O)C3Cc4cc(Br)ccc4N3C2=S)cc1C(F)(F)F (configuration not stated),57.1%
14,CCCCNC(=O)c1cc2c(cc1F)N1C(=S)N(c3ccc(C#N)c(C(F)(F)F)c3)C(=O)C1C2 (configuration not stated),inactive
15,N#Cc1ccc(N2C(=O)C3Cc4ccc(I)cc4N3C2=S)cc1C(F)(F)F (configuration not stated),58.4%
16,N#Cc1ccc(N2C(=O)C3Cc4ccc([N+](=O)[O-])cc4N3C2=S)cc1C(F)(F)F (configuration not stated),58.2%
17,N#Cc1ccc(N2C(=O)C3CC(O)CN3C2=S)cc1C(F)(F)F (configuration not stated),1.9%
18,N#Cc1ccc(N2C(=O)C3Cc4ccc(C(=O)NC5CCCCC5)cc4N3C2=S)cc1C(F)(F)F (configuration not stated),22.9%
19,CCNC(=O)c1cc2c(cc1F)N1C(=S)N(c3ccc(C#N)c(C(F)(F)F)c3)C(=O)C1C2 (configuration not stated),inactive
20,N#Cc1ccc(N2C(=O)C3Cc4ccc(N)cc4N3C2=S)cc1C(F)(F)F (configuration not stated),29%
21,CNC(=O)c1cc2c(cc1F)N1C(=S)N(c3ccc(C#N)c(C(F)(F)F)c3)C(=O)C1C2 (configuration not stated),inactive
22,CCCNC(=O)c1ccc2c(c1)N1C(=S)N(c3ccc(C#N)c(C(F)(F)F)c3)C(=O)C1C2 (configuration not stated),inactive
23,N#Cc1ccc(N2C(=O)C3Cc4cc(Cl)ccc4N3C2=S)cc1C(F)(F)F (configuration not stated),6.7%
24,CC(O)CNC(=O)c1ccc2c(c1)N1C(=S)N(c3ccc(C#N)c(C(F)(F)F)c3)C(=O)C1C2 (configuration not stated),39.3%
25,CNC(=O)c1ccc2c(c1)N1C(=S)N(c3ccc(C#N)c(C(F)(F)F)c3)C(=O)C1C2 (configuration not stated),13.1%
26,N#Cc1ccc(N2C(=O)C3CC4CCCCC4N3C2=S)cc1C(F)(F)F (configuration not stated),50.5%
27,N#Cc1ccc(N2C(=O)C3Cc4cc([N+](=O)[O-])ccc4N3C2=S)cc1C(F)(F)F (configuration not stated),21.8%

# Tested on: Androgen receptor (Homo sapiens), P10275 [T878A]
# Conditions: at 10 µM
# Description: Inhibition of R1881-induced AR T877A mutant nuclear translocation in human LNCAP cells assessed as reduction in ratio of nuclear to cytoplasmic AR levels at 10 uM after 12 hrs by DAPI-staining based fluorescent microscopy
# Sequence of Androgen receptor (Homo sapiens), P10275 [T878A] (P10275 whole entry T878A): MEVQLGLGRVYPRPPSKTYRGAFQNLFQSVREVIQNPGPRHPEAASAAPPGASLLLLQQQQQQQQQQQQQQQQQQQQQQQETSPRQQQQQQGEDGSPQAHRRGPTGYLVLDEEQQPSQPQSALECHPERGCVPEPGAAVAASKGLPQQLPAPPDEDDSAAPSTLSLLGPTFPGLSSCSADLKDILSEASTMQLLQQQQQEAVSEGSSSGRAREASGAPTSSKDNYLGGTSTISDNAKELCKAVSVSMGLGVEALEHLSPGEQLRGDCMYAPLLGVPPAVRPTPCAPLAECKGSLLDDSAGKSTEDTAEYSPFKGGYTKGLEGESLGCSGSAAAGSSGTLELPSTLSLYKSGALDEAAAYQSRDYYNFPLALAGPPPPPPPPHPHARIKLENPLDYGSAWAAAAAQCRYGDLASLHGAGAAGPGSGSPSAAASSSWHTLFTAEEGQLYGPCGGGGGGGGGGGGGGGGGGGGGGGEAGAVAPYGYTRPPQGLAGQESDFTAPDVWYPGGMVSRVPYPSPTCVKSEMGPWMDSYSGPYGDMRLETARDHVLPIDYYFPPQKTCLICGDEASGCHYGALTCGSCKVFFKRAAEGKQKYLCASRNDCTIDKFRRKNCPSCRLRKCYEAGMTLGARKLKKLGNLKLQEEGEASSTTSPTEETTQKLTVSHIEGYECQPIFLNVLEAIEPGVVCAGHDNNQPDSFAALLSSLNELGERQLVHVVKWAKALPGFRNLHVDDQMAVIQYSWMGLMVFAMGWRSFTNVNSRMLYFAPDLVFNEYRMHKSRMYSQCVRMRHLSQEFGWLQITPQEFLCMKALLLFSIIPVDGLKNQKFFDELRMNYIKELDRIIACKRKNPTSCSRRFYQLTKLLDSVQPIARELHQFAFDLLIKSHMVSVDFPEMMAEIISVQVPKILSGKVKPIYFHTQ
row,Structure (SMILES),inhibition
1,N#Cc1ccc(N2C(=O)C3Cc4ccc(Cl)cc4N3C2=S)cc1C(F)(F)F (configuration not stated),Active
